This is an account of results in US5739158A, “Nitrogen-containing cyclohetero cycloalkylaminoaryl derivatives for CNS disorders” (The United States of America as represented by the …, priority 1992, dated 1998).

The target in assay [1] is T1, sigma receptors (Cavia porcellus, UniProt Q60492).
T1 construct: crude synaptosomal (P2) membrane fraction of guinea pig brain for sigma receptors; tissue Pel-Freeze, Rogers, Ak; host or cells: guinea pig brain minus cerebellum, crude synaptosomal (P2) membranes
Nature of the assay: Radioreceptor assay in guinea pig brain homogenate (P2 membranes), [3H]-(+)-3-PPP. It counts as binding.

Assay [2] has as its system NMDA receptor. The conditions noted are these: C. Carter et al, 1988; cited from earlier work.
Assay [3] relates to substantia nigra. Briefly: Circling behavior assay, intranigral microinjection. Type of assay: in vivo, rat. The note with it: for Net Turns (individual rat): individual subjects. How it is done: In order to assess the utility of compounds of the invention in treatment of Parkinsonism, the ability of the compound to stimulate movement following microinjections in the substantia nigra was assessed. Parkinson's disease results from the degeneration of dopamine-secreting neurons in the substantia nigra resulting in a reduced ability to generate movement. […] Such a stimulatory action would predict increased ability to generate voluntary movement in Parkinson's patients showing decreased functionality of this brain area. Current treatments of Parkinson's disease also stimulate this brain area, but show significant side effects that may not be present in compounds of the invention. […] It is expected, therefore, that compounds of the invention would have clinical utility in the treatment of Parkinson's disease and other disorders in which there is a paucity of movement.
Three to seven days before behavioral testing, each animal (245-350 g, N=57) was anesthetized with 50 mg/kg sodium pentobarbital and mounted in a Narishige stereotaxic apparatus. A guide cannula, constructed from 24 gauge thinwall stainless steel tubing, was implanted with its tip 4.0 mm above the left substantia nigra pars reticulata (coordinates: 3.2 mm anterior; 2.2 mm lateral; 4.7 mm ventral), from lambda and the skull surface. Cannulae were secured with stainless steel screws and dental acrylic. Stainless steel stylers kept the cannulae sealed except during drug infusion. All drugs were prepared on the day of testing. Animals were gently restrained and the drugs were administered in a volume of 0.5 ul over 72 seconds through a 31 gauge microneedle that was constructed to extend 4.0 mm beyond the tips of the guide cannulae. […] Animals received a single injection of saline (n=6), 1.5 nmol (n=5), 3.7 nmol (n=6), 9.3 nmol (n=7 or 14.9 nmol (n=5) in 0.5 ul 0.9% NaCl. Following injection, each animal was fitted with a harness which was connected to an optical position transducer interfaced to a compouter that derived the number and direction of half turns for 30 min. Each rat received a single injection of the test drug to minimize tissue damage. Rats were sacrificed by an overdose of sodium pentobarbital and perfused intracardially with 10% formalin. Brains were fixed in a 30% sucrose-formalin solution and coronal sections (40 um) were taken throughout the extent of the injection site. The sections were stained with cresyl violet and examined under a microscope to localize injection sites. Only subjects with histologically confirmed injection sites were used in the data analyses. For the studies of circling behavior, the number of net (contalateral-isolateral) rotations were computed for each rat and subjected to analysis of variance. […] Results showing contralateral circling behavior produced by intranigral microinjections of various doses of Compound #1 are reported in Table IV and illustrated in FIG. 1.
Individual subjects are shown along with the average and standard deviation of the effect.

Assay [4] concerns the target T2, sigma receptor (Rattus norvegicus, UniProt Q9R0C9).
T2 construct: Brains from male Sprague-Dawley rats were homogenized; from tissue; host or cells: rat brain crude membranes (male Sprague-Dawley)
Briefly: Radioreceptor assay in rat brain homogenate, displacement of [3H]-(+)-3-PPP. Type of assay: binding. The conditions noted are these: for Ki: rat brain membranes, 2 nM [3H]-(+)-3-PPP, 1 hr, room temperature, units ± SEM, read-out: Ki apparent. How it is done:
Acad. Sci., 83, 8784-8788, 1986] to determine the relative potency of the compounds interacting with the sigma receptor. To determine the effects of the compounds in a sigma receptor assay, crude membrane preparations were prepared as follows. Brains from male Sprague-Dawley rats were homogenized in 10 volumes (wt/vol) of 0.32M sucrose, using a Polytron grinder. The homogenate was centrifuged at 900×G for 10 minutes at 4° C. The supernatant was collected and centrifuged at 22,000×g for 20 minutes at 4° C. The pellet was resuspended in 10 volumes of 50 mM Tris/HCl buffer (pH 7.4) and centrifuged at 22,000×g for 20 minutes at 4° C. The pellet was resuspended in 5 mM Tris/HCl buffer (pH 7.4) to give a final concentration of 250 mg/ml of the crude material. Incubation tubes were prepared in triplicate and contained 0.1 ml of tissue suspension, 2 nM of [^3 H]-(+)-1-propyl-3-(3-hydroxyphenyl)piperidine {[^3 H]-3-(+)-PPP}, and varying concentrations of the displacing ligand (0.1-1000 nM) in a final volume of 0.5 ml. After a 1 hr incubation at room temperature, the contents of the test tubes were filtered through GS filter paper which had been presoaked for at least 2 hours in 0.05% polyethyleneamine. The test tubes were rinsed three times with Tris/HCl buffer. Radioactivity on the filters was determined and […] were calculated from inhibition curves using the method of Cheng and Prusoff [Biochem. Pharmacol., 22, 3099-3108, 1973].

Several values for one entry are separate records, joined by “and”; a condition that tells them apart may be missing. Equal entries are not always repeated. Entries after “also recorded” stand apart in the source; their conditions may differ. Where two headings read alike, the source gives them in different places.

T1 sequence (Q60492 whole entry): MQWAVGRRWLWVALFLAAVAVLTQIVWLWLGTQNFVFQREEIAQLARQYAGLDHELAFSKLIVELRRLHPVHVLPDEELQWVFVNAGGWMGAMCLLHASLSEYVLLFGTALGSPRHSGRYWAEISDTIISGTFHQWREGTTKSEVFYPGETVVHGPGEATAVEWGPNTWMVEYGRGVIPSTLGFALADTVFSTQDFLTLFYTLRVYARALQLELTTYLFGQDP
T2 sequence (Q9R0C9 whole entry): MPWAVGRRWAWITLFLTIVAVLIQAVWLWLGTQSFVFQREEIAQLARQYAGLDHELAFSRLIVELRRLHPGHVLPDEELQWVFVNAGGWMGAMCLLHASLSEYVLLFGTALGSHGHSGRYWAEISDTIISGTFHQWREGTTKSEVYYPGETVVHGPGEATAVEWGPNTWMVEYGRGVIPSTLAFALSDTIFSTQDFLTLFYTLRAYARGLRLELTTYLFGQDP

As to `CCN(CCc1ccc(Cl)c(Cl)c1)[C@@H]1CCCC[C@@H]1N1CCCC1` [compound 5, (1R,2S)-(-)-cis-N-ethyl-N-[2-(3,4-dichlorophenyl)ethyl]-2-(1-pyrrolidinyl)cyclohexylamine], the Ki in assay [1] turned out to be 3.5 ± 1 nM.
As for `CC(C(O)c1ccc(O)cc1)N1CCC(Cc2ccccc2)CC1` (centres unmarked) [ifenprodil], the “NMDA receptor antagonism (in words)” value in assay [2] is given as “non-competitive NMDA receptor antagonists”.
`CN(CCc1ccccc1)[C@@H]1CCCC[C@@H]1N1CCCC1` (racemic) [compound 9, (±)-cis-N-methyl-N-(2-phenylethyl)-2-(1-pyrrolidinyl)cyclohexylamine] returned a Ki in assay [1] of 113 ± 8 nM.
Still for that read-out and setting: as for `CN(CCc1ccc2c(c1)OCO2)[C@H]1CCCC[C@H]1N1CCCC1` [compound 11, 1S,2R-(-)-cis-N-methyl-N-[2-(3,4-methylenedioxyphenyl)ethyl]-2-(1-pyrrolidinyl)cyclohexylamine], the figure is 90 ± 20 nM; as for `CCN(CCc1ccc(Cl)c(Cl)c1)[C@H]1CCCC[C@H]1N1CCCC1` [compound 14, 1S,2R-(-)-cis-N-[2-(3,4-dichlorophenyl)ethyl]-N-ethyl-2-(1-pyrrolidinyl)cyclohexylamine], 3.1 ± 0.55 nM; as for `CCCN(CCc1ccc(Cl)c(Cl)c1)[C@@H]1CCCC[C@@H]1N1CCCC1` [compound 4, (1R,2S)-(-)-cis-N-[2-(3,4-dichlorophenyl)-ethyl]-N-(n-propyl)-2-(1-pyrrolidinyl)cyclohexylamine], 56 ± 9.9 nM.
Same read-out and setting: as for `CN(CCc1ccc2c(c1)OCO2)[C@@H]1CCCC[C@@H]1N1CCCC1` [compound 12, 1R,2S-(+)-cis-N-methyl-N-[2-(3,4-methylenedioxyphenyl)ethyl]-2-(1-pyrrolidinyl)cyclohexylamine], the figure is 31 ± 0.05 nM.
Regarding `CN(CCc1ccc2ccccc2c1)[C@@H]1CCCC[C@@H]1N1CCCC1` (racemic) [compound 10, (±)-cis-N-methyl-N-[2-(β-naphthyl)ethyl]-2-(1-pyrrolidinyl)cyclohexylamine], in assay [1] (guinea pig brain P2 membranes, 3 nM [3H]-3-PPP, pH 8.0, 120 min, 25° C., units ± SEM, read-out: Ki), the Ki was 33 ± 5 nM.
Regarding “1-(4-chlorophenyl)-2-[1-(4-fluorophenyl)piperidinyl]ethanol”, the “NMDA receptor antagonism (in words)” value in assay [2] is “non-competitive NMDA receptor antagonists”.
In assay [1], `CCCN(CCc1ccc(Cl)c(Cl)c1)[C@H]1CCCC[C@H]1N1CCCC1` [compound 16, 1S,2R-(-)-cis-N-[2-(3,4-dichlorophenyl)ethyl]-N-(1-propyl)-2-(1-pyrrolidinyl)cyclohexylamine] returned a Ki of 140 ± 17 nM.
On the same count and under the same terms, as for `CN(Cc1ccc(Cl)c(Cl)c1)[C@@H]1CCCC[C@@H]1N1CCCC1` (relative stereo) [compound 17, (±)-cis-N-[2-(3,4-dichlorophenyl)methyl]-N-methyl-2-(1-pyrrolidinyl)cyclohexylamine], the figure is 1.2 ± 0.03 nM.
As to `CN(CCc1ccc(Cl)c(Cl)c1)[C@@H]1CCCC[C@@H]1N1CCCC1` (racemic) [Compound No. 1, (±)-cis-N-[2-(3,4-dichlorophenyl)ethyl]-N-methyl-2-(1-pyrrolidinyl)cyclohexylamine], the “Net Turns, Average” value in assay [3] (dose 1.49 nmol, Stan Dev 18.94) is reported as 11.00 1/2 contralateral rotations ne; in assay [3] (dose 3.72 nmol, Stan Dev = 7.87), 18.33 1/2 contralateral rotations ne; in assay [3] (dose 9.3 nmol, Stan Dev 21.46) it was 38.14 1/2 contralateral rotations ne; in assay [3] (dose 14.9 nmol, Stan Dev = 27.08), 31.00 1/2 contralateral rotations ne. Also, the “Net Turns (individual rat)” value in assay [3] (dose 1.49 nmol) was 25.00 1/2 contralateral rotations ne and 17.00 1/2 contralateral rotations ne and 5.00 1/2 contralateral rotations ne and 4.00 1/2 contralateral rotations ne and 38.00 1/2 contralateral rotations ne; in assay [3] (dose 3.72 nmol), 13.00 1/2 contralateral rotations ne and 23.00 1/2 contralateral rotations ne and 5.00 1/2 contralateral rotations ne and 28.00 1/2 contralateral rotations ne and 25.00 1/2 contralateral rotations ne and 16.00 1/2 contralateral rotations ne; in assay [3] (dose 9.3 nmol), 28.00 1/2 contralateral rotations ne and 20.00 1/2 contralateral rotations ne and 46.00 1/2 contralateral rotations ne and 87.00 1/2 contralateral rotations ne and 30.00 1/2 contralateral rotations ne and 22.00 1/2 contralateral rotations ne and 34.00 1/2 contralateral rotations ne; in assay [3] (dose 14.9 nmol), 6.00 1/2 contralateral rotations ne and 58.00 1/2 contralateral rotations ne and 13.00 1/2 contralateral rotations ne and 61.00 1/2 contralateral rotations ne and 7.00 1/2 contralateral rotations ne and 75.00 1/2 contralateral rotations ne and 24.00 1/2 contralateral rotations ne and 4.00 1/2 contralateral rotations ne. Moreover, the “Circling behavior compared to saline control” value in assay [3] (intranigral microinjection 1.5-14.9 nmol, F4,27=3.09, p=0.032) is reported as “significant dose-related increases in circling behavior; also recorded: increasing doses of Compound #1 produce marked effects, which are statistically significant”. In addition, in assay [3] (intranigral, (+)-pentazocine data published previously), the “Doses producing circling compared with (+)-pentazocine” value is recorded as “doses lower than those necessary to produce the effect with (+)-pentazocine”. Further, the “Binding to sigma receptors (in words)” value in assay [4] is on record as “binds to sigma receptors”. Besides, the Ki was determined as 230 ± 70 nM in assay [4] and 1.8 ± 0.4 nM in assay [1].
For the molecule `CN(CCc1ccc(Cl)c(Cl)c1)[C@H]1CCCC[C@H]1N1CCCC1` [Compound No. 7, 1S,2R-(-)-cis-N-[2-(3,4-dichlorophenyl)ethyl]-N-methyl-2-(1-pyrrolidinyl)cyclohexylamine], the figures for the Ki in assay [4] and in assay [1] were 30 ± 10 nM and 1.3 ± 0.3 nM, respectively.
